Source: patent US8158593B2, “GPR17 modulators, method of screening and uses thereof” (Universita' degli Studi di Milano, priority 2004, dated 2012)
Like-named read-outs stand apart in the source and are kept apart here. One block for each compound: values may come before it.

Tests used:
hGPR17 [1] = biological target: T1, hGPR17 (Homo sapiens, UniProt Q13304); assay: [35S]GTPγS binding to membranes of 1321N1 cells expressing human GPR17; assay type: biochemical; set-up: expressed in transfected cells; host or cells: 1321N1 (A1, A5), COS-7 (A3, A6), HEK-293 (A4); pcDNA3.1; settings: for effect on [35S]GTPγS binding (agonist response): tested at 10 and 50 μM, 1321N1 cells expressing hGPR17; for EC50: agonist, 1321N1 cells expressing human GPR17
Protocol: (§1) [^35S]GTPγS Binding Assay. 1321N1 cells, COS-7 and HEK-293 cells (control and transfected cells) were homogenized in 5 mM TRIS-HCl, 2 mM EDTA, pH 7.4 and centrifuged at 48000 g for 15 min at 4° C. The resulting pellets (plasma membranes) were washed in 50 mM TRIS-HCl, 10 mM MgCl2, pH 7.4 and stored at −80° C. until used. Measurement of nucleotide-stimulated [^35S]GTPγS binding to membranes of cells expressing the human or rat GPR17 receptor was performed as previously described^9-11.
(§2) To identify the endogenous ligand of GPR17, the cDNAs from human and rat GPR17 were cloned into the mammalian expression vector pcDNA3.1 and transfected in 1321N1, COS-7 and HEK-293 cells for functional characterization. GPR17 activation was assessed by testing the ability of exogenously-added ligands to increase [^35S]GTPγS binding to purified membranes obtained from transfected cells^9-11. […] The specificity of GPR17 responses were also challenged by assessing the ability of some purinergic and leukotriene receptor antagonists to counteract the increase of [^35S]GTPγS binding evoked by nucleotides and cys-LTs in 1321N1 cells expressing either the human or rat receptor. […] Because both P2Y^2,11,12 and CysLT receptors^3,13 may couple to G proteins of the Gi subfamily, to evaluate the involvement of this class of G-proteins, we preincubated 1321N1 cells expressing hGPR17 with pertussis toxin (PTX) which inactivates Gi proteins, prior to membrane preparation and [^35S]GTPγS binding.
(§3) Table 1. Potency of various ligands on [^35S]GTPγS binding to membranes obtaind from 1321N1 cells-transfected with human or rat GPR17. […] All data represent the mean of triplicate determinations from 4-9 independent experiments.

rat GPR17 = biological target: T2, rat GPR17 (Rattus norvegicus, UniProt Q09QM4); assay: [35S]GTPγS binding to membranes of 1321N1 cells expressing rat GPR17; assay type: biochemical; settings: for IC50: rat GPR17; for EC50: agonist, 1321N1 cells expressing rat GPR17
T2 construct: expressed in transfected cells; host or cells: 1321N1; pcDNA3.1
Protocol: as §1, §2, §3

hGPR17 [2] = biological target: T1, hGPR17; assay: [35S]GTPγS binding, COS-7 cells expressing hGPR17; assay type: biochemical; set-up: expressed in transfected cells; host or cells: COS-7 (A3, A6); pcDNA3.1; settings: COS-7 cells transfected with hGPR17
Protocol: as §1
To identify the endogenous ligand of GPR17, the cDNAs from human and rat GPR17 were cloned into the mammalian expression vector pcDNA3.1 and transfected in 1321N1, COS-7 and HEK-293 cells for functional characterization. GPR17 activation was assessed by testing the ability of exogenously-added ligands to increase [^35S]GTPγS binding to purified membranes obtained from transfected cells^9-11. […] The specificity of GPR17 responses were also challenged by assessing the ability of some purinergic and leukotriene receptor antagonists to counteract the increase of [^35S]GTPγS binding evoked by nucleotides and cys-LTs in 1321N1 cells expressing either the human or rat receptor. […]

hGPR17 [3] = biological target: T1, hGPR17; assay: Single cell calcium imaging in COS-7 cells expressing hGPR17; assay type: cell-based; set-up: expressed in transfected cells; host or cells: COS-7 (A3, A6); pcDNA3.1
Text: (e-h) The same agonists induced no responses in cells transfected with the empty plasmid. […] Polychrome IV (TILL Photonics, Germany) was used as light source. Fura-2 and EGFP fluorescence images were collected with a PCO Super […] (Axon Instruments, Forest City, Calif.) and analyzed with the Axon Imaging Workbench 2.2 software (Axon Instruments).

hGPR17 [4] = biological target: T1, hGPR17; assay: Single cell calcium imaging in 1321N1 cells expressing hGPR17; assay type: cell-based; set-up: expressed in transfected cells; host or cells: 1321N1 (A1, A5), COS-7 (A3, A6), HEK-293 (A4); pcDNA3.1
Text: Polychrome IV (TILL Photonics, Germany) was used as light source. Fura-2 and EGFP fluorescence images were collected with a PCO Super […] (Axon Instruments, Forest City, Calif.) and analyzed with the Axon Imaging Workbench 2.2 software (Axon Instruments).

[5] = system: ischemic brain damage (MCAo); assay: Permanent middle cerebral artery occlusion (MCAo), brain infarct size by MRI; assay type: in vivo, rat; settings: 400 ng/animal i.c.v. 48 and 24 h before and 10 min after MCAo
Protocol: Quantitative analysis of infarct size volume at 24 and 48 h after MCAo from rats receiving vehicle (C1, n=5) or Mtk (2 mg/kg intravenously, i.v., 10 min after MCAO; n=6); vehicle (C2, n=5) or AR-C (4.5 μg/animal intracerebroventricularly, i.c.v., 10 min after MCAo, n=5), vehicle (C3, n=5) or either oligo616 or scrambled-oligo (400 ng/animal, i.c.v., 48, 24 before and 10 min after MCAo, n=5). Data are expressed as percentage variation of infarct volume at 24 and 48 hours after MCAo compared to 2 h considered as 100% (§ p<0.05, # p<0.01 vs volume at 2 hr; *p <0.05, **p<0.01 vs corresponding control evaluated at the same time point). Induction of focal brain ischemia in the rat. Male Sprague-Dawley rats (Charles River) underwent permanent middle cerebral artery occlusion (MCAo) as previously described^28,29. […] AR-C was utilized here to simply test the involvement of GPR17 in brain ischemia, and, being a very polar molecule which is likely to very poorly permeate the blood brain barrier, it was administered i.c.v. Oligo-616 and oligo-scramble (400 ng in 5 μl of physiological solution) were administered i.c.v three times to each rat 48, 24 h before and 10 minutes after MCAo. Control groups received corresponding vehicle i.c.v. Magnetic Resonance Imaging analysis. […]

rGPR17 mRNA = assay: Antisense down-regulation of rGPR17 mRNA in HEK-293 cells (RT-PCR); assay type: cell-based, rat; settings: 0.3 μM, added 16 and 40 h after transfection
Protocol: FIG. 4.1 Target sequences of synthesized anti-sense oligonucleotides on rGPR17 mRNA. (a) The various anti-sense sequences were named based on the rat coding sequence (GenBank accession No.: AC112062); black arrows indicate beginning and ending of the coding sequences. All oligonucleotides, including the “scrambled” sequence, were designed as described in Methods. All these sequences were tested in vitro on HEK-293 cells expressing rGPR17 in order to select the most appropriate oligonucleotides to be utilized for the in vivo studies. Two typical experiments are shown in (b), one aimed at assaying oligo616, oligo241 and oligo99, and the other one aimed at assaying oligoSTART and oligoEND, all in comparison with scrambled oligo sequences run in parallel. On day 2 after plating, cells were transfected with pcDNA3.1 containing the construct encoding for rGPR17 together with the neomycin resistance gene, here utilized as a reported gene. […] Twenty-four h after the last Fugene addition, RNA was extracted from cells as described in Methods, and the transcripts for both rGPR17 and the neomycin resistance gene determined as specific RT-PCR amplification products of 1079 and 357 bp, respectively, as indicated. […]

T1 sequence (Q13304 29-367): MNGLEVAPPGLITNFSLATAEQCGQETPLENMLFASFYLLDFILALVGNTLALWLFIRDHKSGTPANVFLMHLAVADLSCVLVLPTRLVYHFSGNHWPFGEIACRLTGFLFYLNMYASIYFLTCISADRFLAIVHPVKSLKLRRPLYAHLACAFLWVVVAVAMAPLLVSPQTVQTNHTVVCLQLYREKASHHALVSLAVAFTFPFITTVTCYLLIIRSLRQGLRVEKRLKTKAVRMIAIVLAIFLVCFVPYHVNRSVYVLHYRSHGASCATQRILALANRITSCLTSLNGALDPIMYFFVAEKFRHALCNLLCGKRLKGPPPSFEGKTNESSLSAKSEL
T2 sequence (Q09QM4 whole entry): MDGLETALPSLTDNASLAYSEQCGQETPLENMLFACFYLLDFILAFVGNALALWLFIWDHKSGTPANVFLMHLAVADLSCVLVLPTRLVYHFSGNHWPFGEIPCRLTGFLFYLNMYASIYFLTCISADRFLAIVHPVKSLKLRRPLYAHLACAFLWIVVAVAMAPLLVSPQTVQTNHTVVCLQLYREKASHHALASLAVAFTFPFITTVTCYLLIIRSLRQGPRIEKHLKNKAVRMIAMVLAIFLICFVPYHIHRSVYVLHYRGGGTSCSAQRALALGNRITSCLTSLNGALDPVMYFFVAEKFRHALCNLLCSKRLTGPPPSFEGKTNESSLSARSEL

Compound: CSc1nc(N)c2ncn([C@@H]3O[C@H](COP(=O)(O)OP(=O)(O)O)[C@@H](O)[C@H]3O)c2n1 [2-methyl-thio-ADP]
- effect on [35S]GTPγS binding (agonist response) (hGPR17 [1]): No other nucleotides or nucleosides (i.e., ATP, ADP, 2-methyl-thio-ADP, UTP, α,βmethylenATP and guanosine, all tested at 10 and 50 μM concentrations) had any effect

Compound: Nc1ncnc2c1ncn2[C@@H]1O[C@H](COP(=O)(O)OP(=O)(O)O)[C@@H](O)[C@H]1O [ADP]
- effect on [35S]GTPγS binding (agonist response) (hGPR17 [1]): No other nucleotides or nucleosides (i.e., ATP, ADP, 2-methyl-thio-ADP, UTP, α,βmethylenATP and guanosine, all tested at 10 and 50 μM concentrations) had any effect

- IC50 (rat GPR17; antagonist of binding stimulated by 50 μM UDP-glucose): 0.022 ± 0.0015 nM
Compound: CSCCNc1nc(SCCC(F)(F)F)nc2c1ncn2C1OC(COP(=O)(O)OP(=O)(O)C(Cl)(Cl)P(=O)(O)O)C(O)C1O (stereo not drawn) [AR-C69931MX, N6-methylthio-ethyl-2-trifluoromethyl-ethylthio-adenosin-5′beta-methylene, γ-dichloromethylene trisphosphate]

Compound: Nc1ncnc2c1ncn2[C@@H]1O[C@H](COP(=O)(O)OP(=O)(O)OP(=O)(O)O)[C@@H](O)[C@H]1O [ATP]
- effect on [35S]GTPγS binding (agonist response) (hGPR17 [1]): No other nucleotides or nucleosides (i.e., ATP, ADP, 2-methyl-thio-ADP, UTP, α,βmethylenATP and guanosine, all tested at 10 and 50 μM concentrations) had any effect

- EC50 (rat GPR17): 65 ± 4.2 nM
- response in [35S]GTPγS binding (hGPR17 [2]): induced responses
- EC50 (hGPR17 [1]): 0.33 ± 0.011 nM
Compound: CCCCC/C=C\C\C=C/C=C/C=C/[C@@H](SC[C@H](NC(=O)CC[C@H](N)C(=O)O)C(=O)NCC(=O)O)[C@@H](O)CCCC(=O)O [LTC, LTC4]

- EC50 (rat GPR17): 5.9 ± 0.4 nM
- response in [35S]GTPγS binding (hGPR17 [2]): induced responses
- cells showing [Ca2+]i transient (hGPR17 [3]): approximately 50%
- mean calcium response ΔF340/380 (hGPR17 [3]; n=22): 0.18±0.03
- EC50 (hGPR17 [1]): 7.2 ± 0.3 nM
- cells showing rise of [Ca2+]i (hGPR17 [4]): approximately 30%
Compound: CCCCC/C=C\C\C=C/C=C/C=C/[C@@H](SC[C@H](N)C(=O)NCC(=O)O)[C@@H](O)CCCC(=O)O [LTD, LTD4]

- IC50 (hGPR17 [1]): 60 ± 4.3 nM
Compound: CC(C)(O)c1ccccc1CC[C@@H](SCC1(CC(=O)O)CC1)c1cccc(/C=C/c2ccc3ccc(Cl)cc3n2)c1 [Montelukast]

- IC50 (rat GPR17; antagonist of activation induced by 100 nM LTD4): 31 ± 2.4 nM
- IC50 (hGPR17 [1]; antagonist of activation induced by 100 nM LTD4, human GPR17): 10.5 ± 1.2 nM
Compound: O=C(Nc1cccc2c(=O)cc(-c3nnn[nH]3)oc12)c1ccc(OCCCCc2ccccc2)cc1 [Pranlukast]

Compound: O=c1ccn([C@@H]2O[C@H](COP(=O)(O)OP(=O)(O)OP(=O)(O)O)[C@@H](O)[C@H]2O)c(=O)[nH]1 [UTP]
- effect on [35S]GTPγS binding (agonist response) (hGPR17 [1]): No other nucleotides or nucleosides (i.e., ATP, ADP, 2-methyl-thio-ADP, UTP, α,βmethylenATP and guanosine, all tested at 10 and 50 μM concentrations) had any effect

Compound: Nc1nc2c(ncn2[C@@H]2O[C@H](CO)[C@@H](O)[C@H]2O)c(=O)[nH]1 [guanosine]
- effect on [35S]GTPγS binding (agonist response) (hGPR17 [1]): No other nucleotides or nucleosides (i.e., ATP, ADP, 2-methyl-thio-ADP, UTP, α,βmethylenATP and guanosine, all tested at 10 and 50 μM concentrations) had any effect

Compound: Nc1ncnc2c1ncn2[C@@H]1O[C@H](COP(=O)(O)CP(=O)(O)OP(=O)(O)O)[C@@H](O)[C@H]1O [α,βmethylenATP]
- effect on [35S]GTPγS binding (agonist response) (hGPR17 [1]): No other nucleotides or nucleosides (i.e., ATP, ADP, 2-methyl-thio-ADP, UTP, α,βmethylenATP and guanosine, all tested at 10 and 50 μM concentrations) had any effect

- IC50 (hGPR17 [1]; antagonist of binding stimulated by 50 μM UDP-glucose, human GPR17): 508 ± 29 nM
Compound: N6-methyl-adenosin-3′,5′-bis-phosphate [MRS 2179]

Compound: PTX
- inhibition of agonist-stimulated [35S]GTPγS binding (hGPR17 [1]; cells exposed to 100 ng/ml PTX for 18 h before membrane preparation, stimulated by UDP, UDP-galactose, UDP-glucose or LTD4): strongly inhibited

Compound: oligo241: antisense oligonucleotide designed on the sequence of rGPR17 mRNA, SEQ ID NO: 2, unmodified (antisense GGGATCACAAGTCAGGCAC; unmodified DNA; listed as Rattus norvegicus)
- evolution of brain infarct size (MRI) [5]: smaller protective effect

Compound: oligo616: antisense oligonucleotide designed on the sequence of rGPR17 mRNA, SEQ ID NO: 1, unmodified (antisense AACTGTACCGGGAGAAGGCC; unmodified DNA; listed as Rattus norvegicus)
- attenuation of rGPR17 mRNA / in vitro expression of rGPR17 (rGPR17 mRNA): able to attenuate rGPR17 mRNA
- evolution of brain infarct size (MRI) [5]: markedly and significantly attenuated infarct size evolution
